These results are taken from article PMC9241943, “LcCCL28-25, Derived from Piscine Chemokine, Exhibits Antimicrobial Activity against Gram-Negative and Gram-Positive Bacteria In Vitro and In Vivo” (Microbiology Spectrum, 2022).

Assay [1] deals with Staphylococcus aureus USA300. Particulars: S. aureus USA300. How it is done:
The MIC assays were performed as previously described ([43]). Briefly, peptides were plated in a 2-fold dilution series (50 μL/well) of Mueller-Hinton broth (MHB) in Costar 96-well cell culture plates (Corning, NY, USA). Three repeats were set for each concentration. E. coli ATCC 25922, A. hydrophila ATCC 7966, P. aeruginosa PAO1, P. aeruginosa FRD1, S. aureus ATCC 25923, S. agalactiae ATCC 13813, S. pneumoniae ATCC 49619, methicillin-resistant S. aureus ATCC 43300, and methicillin-resistant S. aureus USA300 were cultured in Luria-Bertani (LB) medium, while K. pneumoniae CMCC46117 was cultured in tryptic soy broth (TSB) medium. Incubation was done at 37°C and 150 × g for 12 h. Bacteria were transferred to fresh MHB at a ratio of 1% (vol/vol) and incubated to reach a logarithmic growth phase. Then, 50 μL of a bacterial suspension at 4 × 10^6 CFU/mL was added to each well. After incubation at 37°C for 22 ± 2 h, turbidity was measured using an EnSpire multimode plate reader (PerkinElmer, Singapore) at 595 nm.

Assay [2] has as its system methicillin-resistant S. aureus standard strain USA300. Description: Neutropenic mouse thigh infection model. Particulars: neutropenic BALB/c mice, 300 μg i.p. at 2 h postinfection. In kind it is in vivo. How it is done: Female BALB/c mice were used to construct a neutropenic murine thigh infection model as previously published ([48][–][50]). Briefly, mice (n = 9/group) were rendered neutropenic by consecutive intraperitoneal injections of 150 and 100 mg/kg of body weight cyclophosphamide at 4 and 1 day before bacterial injection ([51]). An S. aureus USA300 inoculum (~1.5 × 10^6 CFU/mL) was prepared by diluting logarithmic phase bacteria with fresh MHB. Each mouse was infected by intramuscular injection of 0.1 mL of the inoculum (~1.5 × 10^5 CFU) into the right thigh muscles. At 2 h postinfection, 0.1 mL of lcCCL28-25 peptide (300 μg) or vancomycin hydrochloride (300 μg, 15 mg/kg) was administered by intraperitoneal injection. The control group was injected with an equal volume of PBS. Untreated control mice were sacrificed at the start of treatment to establish the baseline bacterial burden. Mice in the three treatment groups (PBS, vancomycin, and lcCCL28-25) were sacrificed at 48 h postinfection. Their right thighs were aseptically harvested, placed in sterile saline and homogenized using a Bioprep-6 homogenizer (Allsheng, Hangzhou, China). After being serially diluted to 1:10 in sterile saline, 100-μL amounts of tissue suspensions at various concentrations were plated on LB agar to determine bacterial counts after incubation at 37°C for 24 h.

In assay [3] the test system is S. aureus ATCC 25923. The experiment in a line: SYTOX green membrane permeability assay. In kind it is cell-based, Staphylococcus aureus. The settings on record: S. aureus ATCC 25923, 5 μM SYTOX green, read every 1 min. How it is done:
(§1) The SYTOX green staining assay was performed to assess peptide-associated membrane damage ([47], [52]). E. coli ATCC 25922 and S. aureus ATCC 25923 cells in the mid-logarithmic phase were collected, washed thrice, and resuspended (5 × 10^7 CFU/mL) in buffer B (10 mM Tris-HCl, pH 7.4, at 25°C). The bacterial suspensions were mixed with 5 μM SYTOX green and incubated for 15 min at room temperature in the dark. Then, the mixtures were added to black, clear-bottom 96-well plates at a density of 100 μL/well. After peptide addition, SYTOX green uptake was monitored using an EnSpire multimode plate reader (PerkinElmer, Singapore) with an excitation wavelength of 485 nm and an emission wavelength of 520 nm. Each measurement interval was 1 min, totaling 30 to 60 times. Melittin was used as the positive control, while bovine serum albumin (BSA) was the negative control.

Assay [4] concerns E. coli ATCC 25922. Description: SYTOX green membrane permeability assay. In kind it is cell-based, Escherichia coli. The settings on record: E. coli ATCC 25922, 5 μM SYTOX green, read every 1 min. The procedure: as §1
In assay [5] the test system is S. aureus ATCC 25923 cells. Description: Scanning and transmission electron microscopy. In kind it is cell-based, Staphylococcus aureus. The settings on record: S. aureus ATCC 25923, 5 μg/mL, 15 min. The procedure:
E. coli ATCC 25922 and S. aureus ATCC 25923 cells were cultured and coincubated with or without lcCCL28-25 as described above for fluorescence microscopy.
For scanning electron microscopy (SEM), bacterial cells were fixed with 2.5% glutaraldehyde in PBS (pH 7.35) and attached to 12-mm cover glasses by centrifugation at 75 × g for 6 min using a Cytospin 2 centrifuge (Thermo Fisher Scientific, Schwerte, Germany). Then, cover glasses with attached bacteria were postfixed in 1% aqueous OsO4 for 30 min, dehydrated in a sequence of increasing ethanol concentrations (70%, 80%, and 100%), and critical point dried in a CPD030 (Leica Microsystems, Vienna, Austria). Next, dried samples were mounted on aluminum stubs using conductive carbon tabs, coated with 4 nm of platinum in a CCU-010 sputtering device (Safematic, Bad Ragaz, Switzerland), and imaged by a Supra 50 VP SEM at an acceleration voltage of 2 kV using the in-lens secondary electron detector (Zeiss, Oberkochen, Germany) ([53]).
For transmission electron microscopy (TEM), bacterial cells were obtained by centrifugation after overnight fixation in 2.5% glutaraldehyde (pH 7.35, in PBS) at 4°C. […]

Residues, ends and D or L forms follow the SMILES beside them.

Consider `CSCC[C@H](NC(=O)[C@H](Cc1c[nH]c2ccccc12)NC(=O)[C@H](CCCCN)NC(=O)[C@@H]1CCCN1C(=O)[C@H](Cc1c[nH]cn1)NC(=O)[C@H](C)N)C(=O)N[C@@H](CCC(=O)O)C(=O)N[C@H](C(=O)N[C@H](C(=O)N[C@@H](CCCNC(=N)N)C(=O)N[C@@H](CO)C(=O)N[C@@H](CCCNC(=N)N)C(=O)N[C@@H](CCC(N)=O)C(=O)N[C@@H](CCCNC(=N)N)C(=O)N[C@@H](CCCCN)C(=O)N[C@@H](CCCCN)C(=O)N[C@@H](CCCCN)C(=O)N[C@@H](Cc1c[nH]cn1)C(=O)N[C@@H](CC(N)=O)C(=O)N[C@@H](CCCCN)C(=O)N[C@@H](CCCNC(=N)N)C(=O)N[C@@H](CCCNC(=N)N)C(=O)N[C@@H](C)C(=O)N[C@H](C(=O)N[C@@H](Cc1ccc(O)cc1)C(=O)O)[C@@H](C)O)C(C)C)C(C)C` [lcCCL28-25] (H-AHPKWMEVVRSRQRKKKHNKRRATY-OH; N-terminus and C-terminus assumed), for which the “decrease in antimicrobial activity with CaCl2” value in assay [1] (2.5 mM CaCl2 versus peptide only) worked out at 2 fold. The “decrease in antimicrobial activity with NaCl” value in assay [1] (150 mM NaCl versus peptide only) is 4 fold. Besides, the “reduction of antimicrobial activity under 10% serum” value in assay [1] (10% mouse serum) amounted to 4 fold. The “reduction of antimicrobial activity under 20% serum” value in assay [1] (20% mouse serum) is given as 8 fold. The “reduction of antimicrobial activity under 40% serum” value in assay [1] (40% mouse serum) is recorded as 32 fold. Also, the “reduction in average bacterial load in thighs versus control group” value in assay [2] (S. aureus USA300 i.m., 48 h postinfection) worked out at 0.86 log10 CFU/g. Moreover, the “mice that died after 48 h of infection” value in assay [2] (n = 9/group, three died in PBS group) is recorded as “one”. The “SYTOX green fluorescence intensity” value in assay [3] is listed as “increased rapidly within 20 min”; in assay [4], “did not increase significantly in a short time (20 min)”. In addition, the “membrane structure (TEM)” value in assay [5] is recorded as “significant alterations in membrane structure”.
